From patent US20250296937A1, “CYCLIC BISBENZYL TETRAHYDROISOQUINOLINE COMPOUND, AND PREPARATION METHOD THEREFOR AND USE THEREOF” (Shanghai Institute of Materia Medica, Chinesse Academy of …, priority 2021, published 2025) come the findings set out here.

SMILES strings stand for the structures. “Also recorded” adds a separate entry of the source.

Assay [1] has as its system South African mutant strain of SARS-CoV-2. The class given is cell-based. The conditions noted are these: for EC50: read-out: Inhibition against viral replication of South African mutant strain EC50.
The subject of assay [2] is delta mutant strain of SARS-CoV-2. The assay is classed as cell-based. The note with it: for EC50: read-out: Inhibition against viral replication of delta mutant strain EC50.

In the case of `COc1cc2c3cc1Oc1c(OC)c(OC)cc4c1[C@H](Cc1ccc(cc1)Oc1cc(ccc1C(=O)NC1CC1)C[C@H]3N(C)CC2)N(C)CC4` [Compound 6], in assay [1], the “inhibition against the South African strain” value is given as “strong inhibition; also recorded: significantly inhibited” and the EC50 stood at 2200 nM.

For `CCCCNC(=O)Oc1ccc2cc1Oc1ccc(cc1)C[C@H]1c3c(cc(OC)c(OC)c3Oc3cc4c(cc3OC)CCN(C)[C@@H]4C2)CCN1C` [Compound 2], in assay [2], the “inhibition against the delta strain” value is “strong inhibition; also recorded: significantly inhibited” and the EC50 worked out at 300 nM.

As for `CNC(=O)c1ccc2cc1Oc1ccc(cc1)C[C@H]1c3c(cc(OC)c(OC)c3Oc3cc4c(cc3OC)CCN(C)[C@@H]4C2)CCN1C` [Compound 5], in assay [1], the “inhibition against the South African strain” value is listed as “strong inhibition; also recorded: significantly inhibited” and the EC50 was determined as 2700 nM.

With `COc1cc2c3cc1Oc1c(OC)c(OC)cc4c1[C@H](Cc1ccc(cc1)Oc1cc(ccc1C(N)=O)C[C@H]3N(C)CC2)N(C)CC4` [Compound 4], in assay [2], the “inhibition against the delta strain” value is “strong inhibition; also recorded: significantly inhibited” and the EC50 was determined as 1500 nM.
